Experimental data from PMC12828148, “Engineered cyclic peptide targeting ITGA5 disrupts tumor–stroma interaction to overcome desmoplasia and resistance in pancreatic ductal adenocarcinoma” (Acta Pharmaceutica Sinica. B, 2025).
Ends that are not written are not given here.

Legend:
[1] = system: TGF-β treated PSCs; test: Cell adhesion competition study (PSC attachment to FN-coated plate, crystal violet); format: cell-based, human; conditions: 50 μmol/L peptide, 30 min pre-incubation 37 °C, 1 h attachment, crystal violet absorbance 600 nm, n = 3
Description: To analyze the interaction of PSC and FN, a 96 suspension well plate was coated with 100 μL FN (Advanced Biomatrix, Carlsbad, CA, USA) at 1 μg/mL by overnight incubation at 4 °C. Next, the plate was washed with DPBS (Lonza) and blocked with 5% bovine serum albumin (BSA) in DPBS for at least 1 h at RT. In the meantime, a cell suspension of 200,000 cells/mL of TGF-β treated PSCs in DPBS with 2 mmol/L Ca^2+ and 2 mmol/L Mg^2+ was treated with 50 μmol/L AV3.3 or cyAV3.3 and incubated for 30 min at 37 °C. After washing the plate with DPBS, 100 μL cell suspension was added to each well and then set to rest for 1 h at RT. The plate was then washed with DPBS to remove unattached cells. […] Next, cells were stained with 0.1% (w/v) crystal violet (Sigma) in 25% methanol at RT. After 20 min, cells were washed with water and lysed with 0.5% (w/v) SDS. The degree of cell attachment was measured by the absorbance of the crystal violet at 600 nm using Tecan Infinite M200 plate reader (Tecan, Mannendorf, Switzerland). In other plate, cells were washed with DPBS after fixation and then stained with DAPI. Images were developed using EVOS fluorescence microscope (Thermo Scientific).

[2] = system: PANC-1 homospheroids / PANC-1 + PSC heterospheroids; test: 3D spheroid growth and ATP viability, PANC-1 model; format: cell-based; conditions: PANC-1 homo- and PANC-1 + PSC hetero-spheroids, treated Days 3 and 6, size Days 3, 6, 9, n = 20
Description: Homo-spheroids containing hPSCs, PANC-1, or MIA PaCa-2, and hetero-spheroids containing 1:1 combination of hPSCs and PANC-1/MIA PaCa-2 were generated in a 96-well round bottom plates precoated with 1% Pluronic F-127 (Sigma–Aldrich). The self-assembled spheroids were exposed to cyAV3.3, gemcitabine, or both after 3 days and 6 days. Before each treatment, images of spheroids were made using inverted microscope. The diameters of spheroids were measured digitally using ImageJ software. After 9 days, spheroids were moved from the wells to a fresh 96-well plate. CellTiter-Glo 3D reagent (Promega, WI, USA) was added to each well and the luminescence signal was measured after 30 min using Varioskan LUX bioluminescent reader (Thermo Scientific) to assess the viability.

[3] = system: PANC-1 + PSC and MIA PaCa-2 + PSC co-injection xenograft tumors; conditions: PANC-1 + PSC and MIA PaCa-2 + PSC co-injection xenografts, i.p. treatment, n = 4 per group per tumor type
Description: Six-week-old male CB17 SCID mice (Janvier Labs, Le Genest-Saint-Isle, France) were subcutaneously injected with a 2:1 mixture of 4 × 10^6 human PSCs and 2 × 10^6 PANC-1 or MIA PaCa-2 cells. Tumor growth was assessed twice a week. Tumor-bearing mice (±100 mm^3) were treated with phosphate buffered saline (PBS), cyAV3.3, gemcitabine, or combination of gemcitabine and cyAV3.3 intraperitoneally (i.p). Animals were euthanized, tumors and other organs were harvested and embedded in Cryomatrix (Thermo Scientific) before being snap frozen in cold 2-methyl butane (Thermo Scientific) and stored at −80 °C until analyses. […]
Immunohistochemical staining of mouse tumors
Tumors were cut into 7 μm thick sections and mounted on glass slides using Cryotome FSE (Thermo Scientific), dried, and fixed in acetone for 15 min. Tumor sections were rehydrated in PBS for 10 min then incubated with primary antibody diluted in PBS for 1 hour at RT. Antibodies […]
Next, slides were washed 3 times with PBS before incubation with secondary fluorescence-labeled antibody diluted in PBS. After 30 min of incubation, slides were washed with PBS and shielded with a DAPI -containing mounting medium. Images were made using a Hamamatsu NanoZoomer Digital slide scanner 2.0HT (Hamamatsu Photonics, New Jersey, […]

[4] = system: KPC (LSL-Kras^G12D/+; LSL-Trp53^R172H/+; Pdx1-Cre) PDAC tumors; test: Efficacy in genetically engineered KPC mouse PDAC model; format: in vivo, mice; conditions: isolated tumors, n = 6
Description: LSL-Kras^G12D/+; LSL-Trp53^R172H/+; Pdx1-Cre (KPC) mice were bred and maintained, on a mixed background, at the CRUK Scotland Institute. Mice were palpated until an abdominal tumor was detected (between 12 and 28 weeks of age) and were then imaged under anesthesia by 3D ultrasound imaging using the VisualSonics Vevo 3100 system with the MX550D transducer (FujiFilm). Following confirmation of PDAC of 3–6 mm, mice of both sexes were enrolled on treatment with cyAV3.3 25 mg/kg i.p. b.i.w. and gemcitabine (100 mg/kg i.p. b.i.w., n = 6). No mice were excluded from the study. Mice treated with gemcitabine alone were used as control group (n = 6). Follow-up imaging to monitor tumor volume was performed weekly until endpoint was reached (moderate symptoms: abdominal distension, loss of body conditioning, jaundice, hunching, or reduced movement). Upon post-mortem, gross pathology was examined and PDAC and organs harvested and fixed in 10% neutral buffered formalin prior to paraffin embedding and sectioning for histological and IHC analysis. Kaplan–Meier and Log-Rank analysis was used for statistical assessment of survival. Analysis of ultrasound images was performed by researchers blinded to treatment arm using VisualSonics VevoLab software (version 3.1.1). In 3D mode, stacked images of the tumor were imported, and tumor border annotated, allowing a 3D volume analysis.

[5] = system: hPSCs; test: Cell viability, Alamar blue assay; format: cell-based, human
Description: We investigated the inhibitory effect of both cyclic and linear peptides on PSC activation and signaling. To achieve this, PSCs were seeded and treated with TGF-β and peptides for 48 h (protein expression) or 24 h (gene expression). We also tested the effect of the peptide on the cell viability using Alamar blue assay and found no toxicity (Supporting Information Fig. S3A). […] To quantitate that, we performed Western blot analysis and confirmed the observed effect via immunostaining (Fig. 2B and C; Fig. S3B). The details of the antibodies used can be found in Supporting Information Table S2. […] After obtaining these effects, we focused on cyAV3.3 and examined its inhibitory effects on TGF-β1-stimulated PSCs using qPCR and an RT[2] profiler PCR array for ECM and adhesion receptors (Fig. 2D). […] The details of primers for all genes can be found in Supporting Information Table S3. […] In contrast, cyAV3.3 induced the gene expression of ECM-degrading proteins such as MMP10 and ADAMTS-13 (Supporting Information Fig. S4).

[6] = system: hPSC activated with TGF-β; test: Inhibition of TGF-β-induced PSC activation (immunocytochemical staining, Western blot); format: cell-based, human; conditions: 5 ng/mL TGF-β, 48 h, peptides at 20 and 50 μmol/L, immunostaining and Western blot
Description: secondary peroxidase labeled antibody was added and incubated for 1 h at RT. The HRP signal was developed using standard chemiluminescence kit and the signal was measured.
To evaluate the stability, 20 µmol/L peptide was incubated in 50% human plasma at biological temperature 37 °C for 1, 2, and 24 h. After incubation, plasma was precipitated by adding equal volume of 4% trichloroacetic acid (TCA) and rested on ice for 10 min. As control (or 0h), precipitation was performed immediately after mixing the peptide and plasma. Supernatant was collected after centrifugation at 13,300 × g and assessed using reversed phase high performance liquid chromatography (HPLC) with 5%, 95%, and 99.9% acetonitrile in de-gassed water with 0.1% trifluoroacetic acid as eluents. The remaining peptide was analyzed at a wavelength 280 nm.
Quantitative real-time PCR
To examine the effect of peptides on the gene expression of hPSC activation markers, cells were seeded into a 12 well plate at a seeding density of 50,000 cells/well. After overnight incubation, cells were starved for 24 h, then treated with human recombinant 5 ng/mL TGF-β (Peprotech, Hamburg, Germany) and […] peptide. After 24 h of the incubation, cells were lysed and total RNA was isolated using GenElute™ Mammalian Total RNA Miniprep Kit (Sigma–Aldrich) and the RNA concentration was measured using a NanoDrop® ND-1000 Spectrophotometer (Thermo Scientific, Waltham, USA). cDNA was synthesized with iScript™ cDNA Synthesis Kit (BioRad, Veenendaal, The Netherlands), and 10 ng cDNA was used for each PCR reaction. […] Quantitative real time PCR was performed with 2× SensiMix SYBR and Fluoroscein Kit (Bioline GmbH, Luckenwalde, Germany) using a BioRad CFX384 Real-Time PCR detection system (BioRad). […]
To evaluate the effect of peptides on the protein expression of hPSC activation markers, hPSCs were seeded into a 12 well plate at seeding density 50,000 cells/well. […] Proteins were detected with […]
medium. […] Images were analyzed using […]
secondary fluorescence-labeled antibody diluted in PBS. […]

Compound: cyclo(GYYTRRAYK) [scr, scrambled cyclic peptide control, reference compound]
- blocking of the binding of PSC to FN [1]: did not show any blocking

Compound: Nc1ccn([C@@H]2O[C@H](CO)[C@@H](O)C2(F)F)c(=O)n1 [gemcitabine]
- spheroid growth [2]: reduced the growth of both homo- and hetero-spheroids
- reduction of tumor size / tumor growth [3]: 60%
- collagen deposition (Sirius red) in KPC tumors [4]: significantly induced collagen deposition

Compound: RYYRATY [AV3.3]
- effect on cell viability [5]: no toxicity
- inhibition of PSC activation by TGF-β1 (expression of α-SMA and collagen-1) [6]: inhibited the activation of PSCs
